Experimental data taken from patent US11439646B2, “Anti-proliferative agents for treating PAH” (Pfizer Inc., priority 2016, dated 2022).

Legend:
rat Su5416/Hx PAH model = experiment: Rat SuHx (Su5416/hypoxia)-induced PAH model (hemodynamics, histomorphometry, IHC); type: in vivo
Description: SuHx-induced Pulmonary Arterial Hypertension: Sprague-Dawley rats were obtained from Charles River Laboratories (200-300 g; vehicle control, n=5; all other groups, n=10). Rats received Semaxinib dissolved in DMSO on day 0, followed by housing in low (13%) oxygen until day 28. Sildenafil (30 mg/kg/dose; BID), Riociguat (10 mg/kg, QD) or Palbociclib (100 mg/kg; QD) was administered in vehicle (0.5% methylcellulose) from days 7-28. Terminal hemodynamic evaluations and necropsy were conducted on day 28 in a manner similar to the MCT study.
Hemodynamic measurements Su/Hx study: On day 28, animals were anesthetized via intramuscular injection of ketamine/xylazine (80/10 mg/kg). A Millar catheter was inserted into the pulmonary artery and pulmonary pressure and hemodynamics were measured as described by Stringer et al., (1981) Catheterization of the pulmonary artery in the closed-chest rat. J. Appl. Physiol. 51, 1047-1050. Hemodynamic values were calculated using the NOTOCORD-Hem software (NOTOCORD, Inc., Croissy sur Sienne, France) (CorDynamics).
(§1) Measurement of RV hypertrophy. After collection of the heart at necropsy, the atria and great vessels were removed. The RV was separated from the LV and S. The wet weights of the RV and LV+S were measured to calculate the Fulton Index.
(§2) Tissue preparation. Under anesthesia, the animals were exsanguinated, and the pulmonary circulation flushed with oxygenated (animals from Example 3 [MCT]) or heparizined (animals from Example 4 [Su5416/Hx]) saline. Trachea, lungs, and heart were removed intact from thoracic cavity and placed in ice-cold saline. Right lung lobes were removed, weighed, and immediately flash frozen in liquid nitrogen. A 10 mL syringe filled with fixative (10% NBF) with attached blunt tip needle (20 g) was used to inflate the left lung lobe and the airway was tied off to keep it consistently expanded. The left lung was then immersion fixed in 10% NBF for 48 hrs and then transferred to 70% EtOH for ≤5 days.
(§3) Histomorphometric analysis. Three, 3-5 μm thick, transverse sections of the left lung lobe were used for histomorphometric analysis. Overall disease severity scores were determined by light microscopic evaluation of hematoxylin and eosin (H&E)-stained lung sections by a board-certified veterinary pathologist. Scores ranged from 0 (absent), 1 (minimal), 2 (mild), 3 (moderate), 4 (marked) to 5 (severe) and were assigned according to the approximate percentage of the tissue affected by the tissue changes (inflammatory, degenerative, vascular and/or proliferative) characteristic of the PAH model. Average vessel wall thickness was evaluated using lung sections prepared with a modified Verhoeff-van Gieson elastin stain. Image analysis was performed using random field sampling (Visiopharm newCAST) of 10% of tissue area with observer-assisted identification of intra-acinar and pre-acinar vessels and application of a nucleator probe to measure vessel wall thickness. Fully muscularized intra-acinar vessel density was evaluated in a similar manner using dual αSMA/Ki67 IHC-stained sections and observer-assisted counting of ≥70% muscularized (i.e. SMA^+), transversely sectioned, ≤50 μm external diameter, intra-acinar vessels with an identifiable lumen. Vessel-associated Ki67^+ and pRb^+ cells were counted in αSMA/Ki67 IHC-and CD31/pRb IHC-stained lung sections, respectively, using random field sampling of 10% of tissue area and observer-assisted identification of Ki67^+ or pRb^+ cells associated with the walls (i.e. in the intima or media) of vessels 100 μm external diameter.
Immunohistochemistry. Dual α-SMA/Ki67 nuclear antigen: All IHC steps were performed on 3 μm-thick, formalin-fixed, paraffin-embedded (FFPE) sections on Leica Bond Rx automated immunohistochemistry stainer. The instrument was programmed to bake and dewax the slides. […]

[1] = test system: Rat MCT-induced PAH Model; experiment: Rat MCT-induced PAH model (hemodynamics, histomorphometry, IHC); type: in vivo
Description: Rat MCT-induced PAH Model: Male Sprague-Dawley rats (Charles River Laboratories) (260-280 g; vehicle control group, n=6; all other groups, n=15) received MCT (50 mg/kg, SC; 1 ml/kg BVV) dissolved in vehicle (33.3% 1 N HCl, 14.8% 1 N NaOH, 52.2% diH2O) or vehicle alone on day 0. Sildenafil (50 mg/kg/dose; BID) was administered (5 ml/kg, PO) either prophylactically from days 0-28 or therapeutically from days 14-28. Palbociclib (100 mg/kg; QD) was administered therapeutically (days 14-28). Both sildenafil and palbociclib were resuspended in vehicle (0.5% methylcellulose) and administered orally (5 ml/kg). On day 28, animals were anesthetized via isoflurane, hemodynamic parameters were evaluated, and tissues harvested after euthanasia.
Hemodynamic measurements—monocrotaline (MCT) study: On day 28, animals were anesthetized via 2% isofluorane in positive pressure ventilator. Pulmonary hemodynamics were measured using a pre-calibrated pressure transducer in isoflurane positive-pressure ventilated animals. Steady-state pulmonary and systemic arterial pressures were measured using a Millar Solid State Mikro-tip catheter (Millar Instruments, Houston, Tex.) introduced to the pulmonary arterial trunk at the level of the aortic arch via the right carodid artery. Hemodynamic values were automatically calculated by the physiological data acquisition system, ADI Chart (ADI Instruments, Colorado Springs, Colo.) (Plato BioPharma).
as §1, §2, §3
Immunohistochemistry. […]

[2] = days 7 to 28, score scale 0-5, FIG. 4g
[3] = day 14-28, score scale 0-5, FIG. 3g

## CC(=O)c1c(C)c2cnc(Nc3ccc(N4CCNCC4)cn3)nc2n(C2CCCC2)c1=O [Palbociclib, 6-acetyl-8-cyclopentyl-5-methyl-2-{[5-(piperazin-1-yl)pyridin-2yl]amino}pyrido[2,3-d]pyrimidin-7(8H)-one]
Rat Su5416/Hx PAH model; days 7 to 28
  vessel-associated Ki67+ cells in the pulmonary vasculature (IHC): fully reversed
  vessel-associated pRb+ cells in the pulmonary vasculature (IHC): fully reversed
Rat Su5416/Hx PAH model; days 7 to 28, FIG. 4c
  Fulton Index: significant reduction
Rat Su5416/Hx PAH model; days 7 to 28, FIG. 4e
  muscularized intra-acinar vessel density relative to vehicle/Su5416/Hx group: 0.68 x Su5416/Hx
Rat Su5416/Hx PAH model; days 7 to 28, FIG. 4f
  structural changes in the pulmonary vasculature (histomorphometry): dramatically improved and in some cases fully normalized
Rat Su5416/Hx PAH model; days 7 to 28, FIG. 4j
  heart weight vs vehicle/Su5416/Hx group: significant reduction
Rat Su5416/Hx PAH model; days 7 to 28, FIG. 4d
  average vessel wall thickness, intra-acinar and pre-acinar vessels: significantly reduced
Rat Su5416/Hx PAH model; [2]
  disease severity scores, mean: 0.25
  disease severity scores, range: 0-1.5
Rat Su5416/Hx PAH model; palbociclib 100 mg/kg/day PO QD days 7 to 28
  hemodynamic endpoints / hemodynamic changes: restored hemodynamic endpoints closer to the non-diseased control group
Rat Su5416/Hx PAH model; palbociclib 100 mg/kg/day PO QD days 7 to 28, listed as palbociclib
  hemodynamic endpoints / hemodynamic changes: near-complete suppression
[1]; FIG. 3f
  structural changes in the pulmonary vasculature (histomorphometry): dramatically improved and in some cases fully normalized
[1]; FIG. 5c
  vessel-associated Ki67+ proliferating cells (IHC, lung): dramatically decreased to control levels
[1]; FIG. 5d
  vessel-associated phosphoRb+ cells (IHC, lung): dramatically decreased to control levels
[1]; day 14-28, FIG. 3e
  density of fully muscularized intra-acinar vessels (αSMA staining): greater reduction
[1]; day 14-28, FIG. 3d
  average vessel wall thickness (elastin staining), intra-acinar and pre-acinar pulmonary arteries, relative to vehicle/MCT group: 0.58 x MCT
[1]; [3]
  disease severity scores, mean: 1
  disease severity scores, range: 0-2
[1]; palbociclib 100 mg/kg/day PO QD, therapeutic day 14-28, versus sildenafil day 0-28
  hemodynamic and physiologic effects: not only matched but exceeded the positive hemodynamic and physiologic effects of sildenafil when dosed prophylactically
